From patent US20030109418A1, “Methods for identifying compounds for inhibition of neoplastic lesions, and pharmaceutical compositions containing such compounds” (priority 1999, published 2003) come the findings set out here.

Structures can show the parent of a compound that is named as a salt.

Data set [1] addresses T1, purified cyclooxygenase (Type 1, COX-I) from ram seminal vesicles (Ovis aries, UniProt P05979).
T1 construct: using purified cyclooxygenase from ram seminal vesicles as described previously; tissue Cayman Chemical, Ann Arbor, Mich; (named in the general protocol only); host or cells: ram seminal vesicles
T1 sequence (P05979 25-600): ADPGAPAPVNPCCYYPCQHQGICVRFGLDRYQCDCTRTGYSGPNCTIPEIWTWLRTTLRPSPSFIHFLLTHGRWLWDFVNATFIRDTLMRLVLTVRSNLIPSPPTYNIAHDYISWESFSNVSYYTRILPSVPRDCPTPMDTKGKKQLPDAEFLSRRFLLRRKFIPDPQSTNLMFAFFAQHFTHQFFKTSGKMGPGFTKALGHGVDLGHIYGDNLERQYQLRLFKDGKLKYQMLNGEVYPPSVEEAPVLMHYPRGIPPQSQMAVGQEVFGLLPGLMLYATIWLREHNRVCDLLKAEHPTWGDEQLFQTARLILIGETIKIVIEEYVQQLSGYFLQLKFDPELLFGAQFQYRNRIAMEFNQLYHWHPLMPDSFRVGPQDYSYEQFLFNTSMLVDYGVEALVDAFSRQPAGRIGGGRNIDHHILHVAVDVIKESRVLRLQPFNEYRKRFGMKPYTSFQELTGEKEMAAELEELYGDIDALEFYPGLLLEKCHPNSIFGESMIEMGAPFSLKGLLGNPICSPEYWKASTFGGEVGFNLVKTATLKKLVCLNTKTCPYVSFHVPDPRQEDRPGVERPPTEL
Put plainly: COX inhibition assay, purified cyclooxygenase. To be noted: for inhibition at 100 µM: read-out: Cyclooxygenase inhibitory activity, % Inhibition at 100 μM. It counts as biochemical.

In data set [2] the test system is cGMP PDE purified from human colon HT-29 cultured tumor cells. Put plainly: cGMP PDE inhibition assay. It is filed as biochemical. As to conditions: for IC50: read-out: IC50 for inhibition of cGMP PDE, HT-29 cell enzyme.
The subject of another data set is SW-620. Put plainly: Growth inhibition, neutral red assay, SW-620. It is filed as cell-based, human. As to conditions: free base, five days. As for the experimental part: (§1) Compound I's activity is not confined to activity against colon cancer cell lines or animal models of colon cancer. It has a broad range of anti-neoplastic effects in various neoplastic cell lines. Various types of human cancer cell lines were propagated under sterile conditions in RPMI 1640 medium with 10% fetal bovine serum, 2 mM L-glutamine and sodium bicarbonate. To determine growth inhibitory effects of Compound I, cells were seeded in 96-well plates at a density of 1000 cells per well. Twenty-four hours after plating, the cells were dosed with various concentrations of the free base of Compound I solubilized in DMSO (final concentration 0.1%). The effect of the drug on tumor cell growth was determined using the neutral red cytotoxicity assay following five days of continuous treatment. Neutral red is a dye that is selectively taken up by viable cells by an ATP-dependent transport mechanism.

The test system of another data set is PC-3. In words: Growth inhibition, neutral red assay, PC-3. It counts as cell-based, human. As to conditions: free base, five days. On the procedure:
as §1

A further data set concerns NCI-H82. Put plainly: Growth inhibition, neutral red assay, NCI-H82. It counts as cell-based, human. As to conditions: free base, five days. As for the experimental part:
as §1

A further data set concerns MDA-MB-231. In words: Growth inhibition, neutral red assay, MDA-MB-231. It is filed as cell-based, human. As to conditions: free base, five days. As for the experimental part: as §1
The next data set relates to K-562. Put plainly: Growth inhibition, neutral red assay, K-562. It counts as cell-based. To be noted: Homo sapiens, K562; HCl salt. As for the experimental part:
as §1

The next data set has as its system PANC-1. In words: Growth inhibition, neutral red assay, PANC-1. It is filed as cell-based. As to conditions: Homo sapiens, HCl salt. On the procedure:
as §1

In data set [3] the test system is SW-480 colon adenocarcinoma cells. Put plainly: Apoptosis fold induction protocol (DNA fragmentation ELISA). To be noted: Homo sapiens.
The next data set concerns UACC375, Melanoma. Put plainly: Growth inhibition, SRB assay, UACC375. It counts as cell-based. As to conditions: Homo sapiens, UACC-375. From the text:
(§2) A compound's ability to inhibit tumor cell growth can be measured using the HT-29 human colon carcinoma cell line obtained from ATCC. HT-29 cells have previously been characterized as a relevant colon tumor cell culture model (Fogh, J., and Trempe, G. In: Human Tumor Cells in Vitro, J. Fogh (eds.), Plenum Press, New York, pp. 115-159, 1975). HT-29 cells are maintained in RPMI media supplemented with 5% fetal bovine calf serum (Gemini Bioproducts, Inc., Carlsbad, Calif.) and 2 mm glutamine, and 1% antibiotic-antimycotic in a humidified atmosphere of 95% air and 5% CO2 at 37° C. Briefly, HT-29 cells are plated at a density of 500 cells/well in 96 well microtiter plates and incubated for 24 hours at 37° C. prior to the addition of compound. […] After six days in culture, the cells are fixed by the addition of cold trichloroacetic acid to a final concentration of 10% and protein levels are measured using the sulforhodamine B (SRB) colorimetric protein stain assay as previously described by Skehan, P., Storeng, R., Scudiero, D., Monks, A., McMahon, J., Vistica, D., Warren, J. T., Bokesch, H., Kenney, S., and Boyd, M. R., “New Colorimetric Assay For Anticancer-Drug Screening,” J. Natl. Cancer Inst. […]
(§3) To show the effectiveness of this screening method on various forms of neoplasia, compounds were tested on numerous cell lines. […] The IC50 values were determined by the SRB assay. […]

For data set [4], the system named is Bronchial Epithelial Cells. Put plainly: Growth inhibition, SRB assay, bronchial epithelial cells. As to conditions: Epithelial cell. It is filed as cell-based.
Source text: as §2, §3

Data set [5] concerns NRK, Kidney (non ras-transformed). In words: Growth inhibition, SRB assay, NRK. It is filed as cell-based.
Data set [6] in a line: Safety evaluation in exisulind clinical trials. It is filed as in vivo. On the procedure: In these exisulind trials and several others involving the drug in other indications, safety was evaluated by monitoring adverse events (AEs), clinical laboratory tests (hematology, serum chemistry, and urinalysis), vital signs (blood pressure, pulse rate, respiratory rate, temperature, and weight), physical examination, and upper endoscopy.

As for `CC1=C(CC(=O)NCc2ccccc2)c2cc(F)ccc2/C1=C\c1ccncc1` [Compound I, (Z)-5-fluoro-2-methyl-(4-pyridylidene)-3-(N-benzyl)indenylacetamide hydrochloride], the inhibition at 100 µM in data set [1] is below 25%. In addition, the IC50 in data set [2] is 680 nM. In addition, the GI50 with SW-620 (Homo sapiens, SW-620, 120 h) is 1.7 µM; with PC-3 (Homo sapiens, PC-3, 120 h) it was 1.7 µM; in the data set on NCI-H82 (Homo sapiens, NCI-H82, 120 h) it was 1.7 µM; in the data set on MDA-MB-231 (Homo sapiens, MDA-MB-231, 120 h), 1.8 µM; with K-562, 1.8 µM; in the data set on PANC-1 it was 2.2 µM. The “GI90 μM, SW-620” value in the data set with SW-620 turned out to be 2.5 µM. Moreover, in the data set on PC-3, the “GI90 μM, PC-3” value was determined as 82.5 µM. The “GI90 μM, NCI-H82” value in the data set with NCI-H82 turned out to be 5.8 µM. In addition, the “GI90 μM, MDA-MB-231” value in the data set on MDA-MB-231 amounted to 77.6 µM. Besides, in [3] (SW480, read-out: DNA fragmentation EC50), the EC50 is 15000 nM.

`CC1=C(CC(=O)O)c2cc(F)ccc2/C1=C\c1ccc(S(C)(=O)=O)cc1` [Exisulind, 5-fluoro-2-methyl-1-(p-methylsulfonylbenzylidene)-3-indenylacetic acid]: the “COX Inhibition” value in data set [1] (qualitative activity profile) is recorded as “−”. For the same compound, the inhibition at 100 µM in [1] is below 25%. Moreover, in data set [2] (10 μM), the “cGMP PDE inhibitory activity, % Inhibition at 10 μM” value was 39%. Besides, the “PDE Inhibition” value in data set [2] (qualitative activity profile) was “++”. The half-inhibitory concentration (IC50) in data set [2] came to 56000 nM; with UACC375, Melanoma it was 100 µM; in data set [4], 90 µM; in [5], 180 µM. In data set [6] (APC patients), the “apoptosis rates in paired biopsies of polyp and normal colonic tissues” value is reported as “increased apoptosis rates in polyp, but not normal colonic tissues”. In addition, in data set [6] (human, in vivo), the “toxicities in clinical trials” value was “did not demonstrate any blood dyscrasia, dose-limiting vomiting, or neurological or renal toxicities”. The results for the “maximum tolerated dose (MTD)” value in data set [6] (patients with intact colons), in data set [6] (patients with subtotal colectomy) and in data set [6] (pediatric patients) were 400 mg, 600 mg and 350 mg, respectively. In addition, in data set [3] (SW480, read-out: Apoptosis-inducing activity, Fold induction at 100 μM, 100 μM, cell line not given), the fold induction at 100 µM is below 2.
